Measurements published in PMC10786919, “Design-rules for stapled peptides with in vivo activity and their application to Mdm2/X antagonists” (Nature Communications, 2024).
Converted amounts (≈) assume the structure as drawn. Positions of bridges follow the written chain, without caps; N, C: chain ends. Non-standard residues stand in square brackets, D forms with d. Residues, ends and D or L forms follow the SMILES beside them. Lys(N3) = [N-]=[N+]=NCCCC[C@H](N)C(=O)O; R8 = C=CCCCCCC[C@@](C)(N)C(=O)O; Cba = N[C@@H](CC1CCC1)C(=O)O; S5 = C=CCCC[C@](C)(N)C(=O)O; βAla = NCCC(=O)O; Sar = CNCC(=O)O

Key:
HCT116 cells = experiment: Lactate dehydrogenase (LDH) release assay; format: cell-based
Outline: (§1)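 A p53 β-lactamase reporter HCT116 line, 8000 cells per well, is exposed to test compounds at 0.5% final DMSO and scored for LDH leakage.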

[1] = Lactate dehydrogenase (LDH) release assay; format: cell-based; conditions: LDH: Cytotoxicity assay: EC50
Outline: as §1

[2] = Solubility assay (kinetic solubility, PBS pH 7); format: physicochemical; conditions: pH 7, aqueous buffer, kinetic from dmso stock, pH 7, PBS; read-out: Solubility
Outline: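 Quantitation uses an external standard at 100 µM, prepared from 10 mM stock in acetonitrile:methanol:DMSO (10:80:10). Solubility (µM) = (peak area of sample ÷ peak area of standard) × standard concentration.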

[3] = Experimental LogD (partition coefficient); conditions: not stated, Partition Coeff LogD
EPSA = format: physicochemical
Ca Ski cell line = conditions: 72 h
Outline: (§2)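 Compound dilution series (10 points, 3-fold, 10 mM top stock in DMSO) tested on overnight-plated Ca Ski cells in RPMI1640/10% FBS and on blasticidin-selected p53RE-bla HCT-116 cells in McCoy's 5A; read-out was CellTiter-Glo 2.0 luminescence after room-temperature equilibration.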

[4] = system: CellSensor p53RE-bla HCT-116 Cell Line; conditions: 72 h
Outline: as §2

in vitro = conditions: Nanoclick permeability assay EC50
Outline: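 Azido-peptide permeability was read as loss of NanoBRET signal (donor 450 nm, acceptor 610 nm) after adding NanoBret618-azide at 10 μM final.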

Compound: CC(=O)N[C@@H](CCCNC(=N)N)C(=O)N[C@@H](CCCNC(=N)N)C(=O)NCCCCCC(=O)N[C@@H](CC(C)C)C(=O)N[C@H](C(=O)N[C@@H](Cc1ccccc1)C(=O)N[C@]1(C)CCCCCCC=CCCC[C@@](C)(C(=O)N[C@@H](CO)C(=O)N[C@@H](C)C(=O)N[C@@H](C)C(N)=O)NC(=O)[C@H](CC2CCC2)NC(=O)[C@H](CCC(N)=O)NC(=O)[C@H](C)NC(=O)[C@H](Cc2c[nH]c3ccccc23)NC(=O)[C@H](Cc2ccc(O)cc2)NC(=O)[C@H](CCC(=O)O)NC1=O)[C@@H](C)O [MP-003]
- LDH: Cytotoxicity assay: % Effect (HCT116 cells): 46.5%
- EC50 [1]: 31 µM
- solubility kinetic [2]: 6 µM (≈ 13 µg/mL)
- logD [3]: 2.51
- EPSA (EPSA; EPSA): 207 A^2

Compound: CC(=O)N[C@@H](CCCNC(=N)N)C(=O)N[C@@H](CCCNC(=N)N)C(=O)NCCC(=O)N[C@@H](CCCCN=[N+]=[N-])C(=O)N[C@@H](CC(C)C)C(=O)N[C@H](C(=O)N[C@@H](Cc1ccccc1)C(=O)N[C@]1(C)CCCCCCC=CCCC[C@@](C)(C(=O)N[C@@H](CO)C(=O)N[C@@H](C)C(=O)N[C@@H](C)C(N)=O)NC(=O)[C@H](CC2CCC2)NC(=O)[C@H](CCC(N)=O)NC(=O)[C@H](C)NC(=O)[C@H](Cc2c[nH]c3ccccc23)NC(=O)[C@H](Cc2ccc(O)cc2)NC(=O)[C@H](CCC(=O)O)NC1=O)[C@@H](C)O [MP-006]
- LDH: Cytotoxicity assay: % Effect (HCT116 cells): 47.04%
- EC50 [1]: 26.2 µM
- solubility kinetic [2]: 2 µM (≈ 4.57 µg/mL)
- logD [3]: 2.72
- EPSA (EPSA; EPSA): 226 A^2

Compound: CC(=O)N[C@@H](CCCCN=[N+]=[N-])C(=O)NCC(=O)N[C@@H](CO)C(=O)NCC(=O)N[C@H](C(=O)N[C@@H](CO)C(=O)N[C@@H](Cc1ccccc1)C(=O)N[C@]1(C)CCCCCCC=CCCC[C@@](C)(C(=O)N[C@@H](CCC(=O)O)C(N)=O)NC(=O)[C@H](CC(C)C)NC(=O)[C@H](CC(C)C)NC(=O)[C@H](C)NC(=O)[C@H](Cc2c[nH]c3ccccc23)NC(=O)[C@H](Cc2ccc(O)cc2)NC(=O)[C@H](CCC(=O)O)NC1=O)[C@@H](C)O [MP-010]
- LDH: Cytotoxicity assay: % Effect (HCT116 cells): 19.63%
- EC50 [1]: > 50 µM
- solubility kinetic [2]: 23 µM (≈ 44.8 µg/mL)
- logD [3]: 2.07
- EPSA (EPSA): Poorly Behaved

Compound: CC(=O)N[C@@H](CC(C)C)C(=O)N[C@H](C(=O)N[C@@H](Cc1ccccc1)C(=O)NC(C)(C)C(=O)N[C@@H](CCC(=O)O)C(=O)N[C@@H](Cc1ccc(O)cc1)C(=O)N[C@H](Cc1c[nH]c2ccccc12)C(=O)N[C@@H](C)C(=O)N[C@@H](CCC(N)=O)C(=O)N[C@@H](CC1CCC1)C(=O)NC(C)(C)C(=O)N[C@@H](CO)C(=O)N[C@@H](C)C(=O)N[C@@H](C)C(N)=O)[C@@H](C)O [MP-254]
- EC50 [1]: > 50 µM
- solubility kinetic [2]: 92.5 µM (≈ 150 µg/mL)
- logD [3]: 2.08
- EPSA (EPSA; EPSA): 188 A^2

Compound: CC(=O)N[C@@H](CC(C)C)C(=O)N[C@H](C(=O)N[C@@H](Cc1ccccc1)C(=O)NC(C)(C)C(=O)N[C@@H](CCC(=O)O)C(=O)N[C@@H](Cc1ccc(O)cc1)C(=O)N[C@H](Cc1c[nH]c2ccccc12)C(=O)N[C@@H](CCC(N)=O)C(=O)N[C@@H](CC(C)C)C(=O)N[C@@H](CC1CCC1)C(=O)NC(C)(C)C(=O)N[C@@H](CO)C(=O)N[C@@H](C)C(=O)N[C@@H](C)C(N)=O)[C@@H](C)O [MP-256]
- EC50 [1]: > 50 µM
- solubility kinetic [2]: 91.5 µM (≈ 152 µg/mL)
- logD [3]: 2.18
- EPSA (EPSA; EPSA): 185 A^2

Compound: CC(=O)N[C@H](C)C(=O)N[C@H](C)C(=O)N[C@H](C)C(=O)N[C@H](C)C(=O)N[C@H](C)C(=O)N[C@H](C)C(=O)N[C@H](C)C(=O)N[C@H](C)C(=O)N[C@@H](CC(C)C)C(=O)N[C@H](C(=O)N[C@@H](Cc1ccccc1)C(=O)N[C@]1(C)CCCCCCC=CCCC[C@@](C)(C(=O)N[C@@H](CO)C(=O)N[C@@H](C)C(=O)N[C@@H](C)C(N)=O)NC(=O)[C@H](CC2CCC2)NC(=O)[C@H](CCC(N)=O)NC(=O)[C@H](C)NC(=O)[C@H](Cc2c[nH]c3ccccc23)NC(=O)[C@H](Cc2ccc(O)cc2)NC(=O)[C@H](CCC(=O)O)NC1=O)[C@@H](C)O [MP-414] (Ac-[dA][dA][dA][dA][dA][dA][dA][dA]LTF[R8]EYWAQ[Cba][S5]SAA-NH2; staple 12-19)
- LDH: Cytotoxicity assay: % Effect (HCT116 cells): -4.321%
- EC50 [1]: > 50.7 µM
- solubility kinetic [2]: 35 µM (≈ 81 µg/mL)
- logD [3]: 2.65
- EPSA (EPSA; EPSA): 210 A^2

Compound: CC(=O)N(C)CC(=O)N(C)CC(=O)N(C)CC(=O)N(C)CC(=O)N(C)CC(=O)N(C)CC(=O)N(C)CC(=O)N(C)CC(=O)N[C@@H](CC(C)C)C(=O)N[C@H](C(=O)N[C@@H](Cc1ccccc1)C(=O)N[C@]1(C)CCCCCCC=CCCC[C@@](C)(C(=O)N[C@@H](CO)C(=O)N[C@@H](C)C(=O)N[C@@H](C)C(N)=O)NC(=O)[C@H](CC2CCC2)NC(=O)[C@H](CCC(N)=O)NC(=O)[C@H](C)NC(=O)[C@H](Cc2c[nH]c3ccccc23)NC(=O)[C@H](Cc2ccc(O)cc2)NC(=O)[C@H](CCC(=O)O)NC1=O)[C@@H](C)O [MP-623] (Ac-[Sar][Sar][Sar][Sar][Sar][Sar][Sar][Sar]LTF[R8]EYWAQ[Cba][S5]SAA-NH2; staple 12-19)
- LDH: Cytotoxicity assay: % Effect (HCT116 cells): 3.314%
- EC50 [1]: > 50.7 µM
- solubility kinetic [2]: 150 µM (≈ 347 µg/mL)
- logD [3]: 2.41
- EPSA (EPSA; EPSA): 200 A^2

Compound: CC(=O)N[C@@H](CCCNC(=N)N)C(=O)NCCCCCC(=O)N[C@@H](CC(C)C)C(=O)N[C@H](C(=O)N[C@@H](Cc1ccccc1)C(=O)N[C@]1(C)CCCCCCC=CCCC[C@@](C)(C(=O)N[C@@H](CO)C(=O)N[C@@H](C)C(=O)N[C@@H](C)C(N)=O)NC(=O)[C@H](CC2CCC2)NC(=O)[C@H](CCC(N)=O)NC(=O)[C@H](C)NC(=O)[C@H](Cc2c[nH]c3ccccc23)NC(=O)[C@H](Cc2ccc(O)cc2)NC(=O)[C@H](CCC(=O)O)NC1=O)[C@@H](C)O [MP-4001]
- LDH: Cytotoxicity assay: % Effect (HCT116 cells): -1.283%
- EC50 [1]: > 50 µM
- solubility kinetic [2]: 4 µM (≈ 8.06 µg/mL)
- logD [3]: 2.64
- EPSA (EPSA; EPSA): 207 A^2

Compound: CC(=O)N[C@@H](CCCNC(=N)N)C(=O)N[C@@H](CCCNC(=N)N)C(=O)NCCC(=O)N[C@@H](CC(C)C)C(=O)N[C@H](C(=O)N[C@@H](Cc1ccccc1)C(=O)N[C@]1(C)CCCCCCC=CCCC[C@@](C)(C(=O)N[C@@H](CO)C(=O)N[C@@H](C)C(=O)N[C@@H](C)C(N)=O)NC(=O)[C@H](CC2CCC2)NC(=O)[C@H](CCC(N)=O)NC(=O)[C@H](C)NC(=O)[C@H](Cc2c[nH]c3ccccc23)NC(=O)[C@H](Cc2ccc(O)cc2)NC(=O)[C@H](CCC(=O)O)NC1=O)[C@@H](C)O [MP-4002]
- LDH: Cytotoxicity assay: % Effect (HCT116 cells): 50.55%
- EC50 [1]: 37.7 µM
- solubility kinetic [2]: 11 µM (≈ 23.4 µg/mL)
- logD [3]: 2.47
- EPSA (EPSA; EPSA): 212 A^2

Compound: CC(=O)N[C@@H](CCCCN=[N+]=[N-])C(=O)N[C@@H](CC(C)C)C(=O)N[C@H](C(=O)N[C@@H](Cc1ccccc1)C(=O)N[C@]1(C)CCCCCCC=CCCC[C@@](C)(C(=O)N[C@@H](CCC(=O)O)C(N)=O)NC(=O)[C@H](CC2CCC2)NC(=O)[C@H](CCC(N)=O)NC(=O)[C@H](C)NC(=O)[C@H](Cc2c[nH]c3ccccc23)NC(=O)[C@H](Cc2ccc(O)cc2)NC(=O)[C@H](CCC(=O)O)NC1=O)[C@@H](C)O [MP-4008] (Ac-[Lys(N3)]LTF[R8]EYWAQ[Cba][S5]E-NH2; staple 5-12)
- LDH: Cytotoxicity assay: % Effect (HCT116 cells): -0.7368%
- EC50 [1]: > 50 µM
- solubility kinetic [2]: 23 µM (≈ 41.4 µg/mL)
- logD [3]: 2.48
- EPSA (EPSA): Poorly Behaved

Compound: CC(=O)N[C@@H](CCCCN=[N+]=[N-])C(=O)NCCC(=O)N[C@@H](CCC(N)=O)C(=O)N[C@H](C(=O)N[C@@H](Cc1ccccc1)C(=O)N[C@]1(C)CCCCCCC=CCCC[C@@](C)(C(=O)N[C@@H](CO)C(=O)N[C@@H](C)C(=O)N[C@@H](C)C(N)=O)NC(=O)[C@H](CC2CCC2)NC(=O)[C@H](CCC(N)=O)NC(=O)[C@H](CCC(N)=O)NC(=O)[C@H](Cc2c[nH]c3ccccc23)NC(=O)[C@H](Cc2ccc(O)cc2)NC(=O)[C@H](CCC(N)=O)NC1=O)[C@@H](C)O [MP-5498] (Ac-[Lys(N3)][βAla]QTF[R8]QYWQQ[Cba][S5]SAA-NH2; staple 6-13)
- LDH: Cytotoxicity assay: % Effect (HCT116 cells): 8.092%
- EC50 [1]: > 50.6 µM
- solubility kinetic [2]: 19.7 µM (≈ 40.2 µg/mL)
- EPSA (physchem): 198 A^2
- EC50 (Ca Ski cell line): 38.3 µM
- EC50 [4]: 6.24 µM
- logD [3]: 2.6
- cell entry EC50 (in vitro): 0.0494 µM

Compound: CC(=O)N[C@@H](CCCCN=[N+]=[N-])C(=O)NCCC(=O)N[C@@H](CCC(=O)O)C(=O)N[C@H](C(=O)N[C@@H](Cc1ccccc1)C(=O)N[C@]1(C)CCCCCCC=CCCC[C@@](C)(C(=O)N[C@@H](CO)C(=O)N[C@@H](C)C(=O)N[C@@H](C)C(N)=O)NC(=O)[C@H](CC2CCC2)NC(=O)[C@H](CCC(N)=O)NC(=O)[C@H](CCC(=O)O)NC(=O)[C@H](Cc2c[nH]c3ccccc23)NC(=O)[C@H](Cc2ccc(O)cc2)NC(=O)[C@H](CCC(=O)O)NC1=O)[C@@H](C)O [MP-65496] (Ac-[Lys(N3)][βAla]ETF[R8]EYWEQ[Cba][S5]SAA-NH2; staple 6-13)
- LDH: Cytotoxicity assay: % Effect (HCT116 cells): 2.338%
- EC50 [1]: > 50.6 µM
- solubility kinetic [2]: 83.7 µM (≈ 171 µg/mL)
- EPSA (physchem): 324 A^2
- EC50 (Ca Ski cell line): > 49.8 µM
- EC50 [4]: 1.53 µM
- logD [3]: 1.98
- cell entry EC50 (in vitro): 0.42 µM
